From ChEMBL document CHEMBL1142447, “Insights into the mechanism of Na+,K+-ATPase inhibition by 2-methoxy-3,8,9-trihydroxy coumestan” (Bioorg Med Chem, 2008)
The source made the active and inactive calls. The calls are words filed in the database; no cut-off is given here.

Key:
Rattus norvegicus [1] = species on record: Rattus norvegicus; test: Inhibition of rat kidney Na(+)/K(+) ATPase assessed as enzyme activity at 30 uM after 2 hrs by Fiske and Subbarow method relative to control in presence of 500 uM beta mercaptoethanol; parameters: scale not given: the % may be the effect or the level left
Rattus norvegicus [2] = species on record: Rattus norvegicus; test: Inhibition of rat kidney Na(+)/K(+) ATPase assessed as enzyme activity preincubated for 30 mins after 2 hrs by Fiske and Subbarow method in presence of beta mercaptoethanol
Rattus norvegicus [3] = species on record: Rattus norvegicus; test: Inhibition of rat kidney Ca2+/Mg2+ ATPase assessed after 2 hrs by Fiske and Subbarow method in presence of DTT
Rattus norvegicus [4] = species on record: Rattus norvegicus; test: Inhibition of rat kidney Na(+)/K(+) ATPase assessed after 2 hrs by Fiske and Subbarow method in presence of DTT
[5] = Inhibition of rat stomach H(+)/K(+) ATPase after 2 hrs by Fiske and Subbarow method; type: tissue-based
Rattus norvegicus [6] = species on record: Rattus norvegicus; test: Inhibition of Na(+)/K(+) ATPase in rat kidney assessed as decrease in free sulfydryl groups level at 30 uM after 1 hr by Ellman's method
Rattus norvegicus [7] = species on record: Rattus norvegicus; test: Inhibition of rat kidney Na(+)/K(+) ATPase assessed as enzyme activity at 30 uM after 2 hrs by Fiske and Subbarow method relative to control; parameters: scale not given: the % may be the effect or the level left
[8] = Inhibition of rat gastrocnemius Ca2+/Mg2+ ATPase after 2 hrs; type: tissue-based
Rattus norvegicus [9] = species on record: Rattus norvegicus; test: Inhibition of rat kidney Na(+)/K(+) ATPase assessed as enzyme activity at 30 uM after 2 hrs by Fiske and Subbarow method relative to control in presence of 1 mM cysteine; parameters: scale not given: the % may be the effect or the level left
[10] = Inhibition of rat kidney Na(+)/K(+) ATPase
Rattus norvegicus [11] = species on record: Rattus norvegicus; test: Inhibition of rat kidney Na(+)/K(+) ATPase assessed as enzyme activity at 1 mM after 2 hrs by Fiske and Subbarow method relative to control in presence of 500 uM beta mercaptoethanol; parameters: scale not given: the % may be the effect or the level left
Rattus norvegicus [12] = species on record: Rattus norvegicus; test: Inhibition of rat kidney Na(+)/K(+) ATPase assessed as enzyme activity at 1 mM after 2 hrs by Fiske and Subbarow method relative to control in presence of 1 mM cysteine; parameters: scale not given: the % may be the effect or the level left
Rattus norvegicus [13] = species on record: Rattus norvegicus; test: Inhibition of rat kidney Na(+)/K(+) ATPase assessed as enzyme activity at 1 mM after 2 hrs by Fiske and Subbarow method relative to control; parameters: scale not given: the % may be the effect or the level left
Rattus norvegicus [14] = species on record: Rattus norvegicus; test: Inhibition of rat kidney Na(+)/K(+) ATPase at 1 mM after 2 hrs by Fiske and Subbarow method in presence of DTT

| Structure (SMILES) | Activity (Rattus norvegicus [1]) [%] | Activity (Rattus norvegicus [2]) | Activity (Rattus norvegicus [3]) | Activity (Rattus norvegicus [4]) | IC50 [5] [µM] | Activity (Rattus norvegicus [6]) | Activity (Rattus norvegicus [7]) [%] | IC50 [8] [µM] | Activity (Rattus norvegicus [9]) [%] | IC50 [10] [µM] | Activity (Rattus norvegicus [11]) [%] | Activity (Rattus norvegicus [12]) [%] | Activity (Rattus norvegicus [13]) [%] | Activity (Rattus norvegicus [14]) |
| --- | --- | --- | --- | --- | --- | --- | --- | --- | --- | --- | --- | --- | --- | --- |
| COc1cc2c(cc1O)oc(=O)c1c3cc(O)c(O)cc3oc21 | 81.3 | Active | inactive | inactive | 30 | Active | 6.9 | 10 | 75.5 | 3 | – | – | – | – |
| C[C@@H]1O[C@@H](O[C@H]2C[C@@H](O)[C@]3(CO)[C@H]4[C@H](O)C[C@]5(C)[C@@H](C6=CC(=O)OC6)CC[C@]5(O)[C@@H]4CC[C@]3(O)C2)[C@H](O)[C@H](O)[C@H]1O | – | – | – | – | – | – | – | – | – | – | 10.5 | 12 | 11.6 | Active |
